System: M. tuberculosis H37Rv growth inhibition
Assay: M. tuberculosis H37Rv growth inhibitors, H37Rv strain (AID 1626)
Details: for IC90: measured here: IC90 against H37Rv; for CC50: measured here: Vero cell cytotoxicity

SMILES: COC(=O)CSc1cc(SCC(=O)OC)c(C#N)c(SCC(=O)OC)c1
- IC50: 0.785 µM
- IC90: 2.61 µM

SMILES: CCn1ccnc1CN(C)Cc1cn(-c2cc(C)ccc2C)nc1-c1ccccc1
- IC50: 5.88 µM
- IC90: 10.3 µM

SMILES: Cc1ccc(OC(=O)c2sc3ncn(C)c(=O)c3c2C)cc1
- IC50: 1.49 µM
- IC90: 1.7 µM

SMILES: O=c1nc(/C=C/c2ccc(-c3ccc(F)cc3)o2)cc(C(F)(F)F)[nH]1
- IC50: 10.4 µM
- IC90: > 100 µM
- CC50: > 40 µM

SMILES: O=C(/C=C/c1ccccc1)C1C(=O)c2ccccc2C1=O
- IC50: 23.5 µM
- IC90: 26.5 µM
- CC50: 32.1 µM

SMILES: O=C(C=C=Nc1ccccc1)C(=O)N=C=Cc1ccccc1
- IC50: 16.4 µM
- IC90: 25 µM
- CC50: 22.8 µM

SMILES: O=C(NCc1nnc2c3ccccc3c(-c3ccccc3)nn12)c1ccc(Cl)cc1
- IC50: 3.04 µM
- IC90: 3.32 µM
- CC50: > 40 µM

SMILES: O=C1c2cccc3cc([N+](=O)[O-])cc(c23)C(=O)N1CCN1CCCC1
- IC50: 4.6 µM
- IC90: 5.71 µM
- CC50: 1.8 µM

SMILES: COc1ccc(N=C2C(=O)N3c4c(cccc42)C(C)=CC3(C)C)cc1
- IC90: > 100 µM

SMILES: COC(=O)COc1ccc2c(=O)c(-c3ccccc3OC)coc2c1
- IC50: 3.01 µM
- IC90: 5.62 µM

SMILES: COc1ccc(C(CCNCc2ccc(F)cc2)c2ccc(F)cc2)cc1 (stereo unspecified)
- IC50: 5.7 µM
- IC90: 6.62 µM
- CC50: 23.2 µM

SMILES: O=[N+]([O-])c1cc(C(F)(F)F)ccc1Oc1cccnc1[N+](=O)[O-]
- IC50: 1.54 µM
- IC90: 1.73 µM

SMILES: COc1ccc(NC(C#N)c2ccc(OC)cc2)cc1 (stereo unspecified)
- IC90: > 100 µM

SMILES: Cc1ccc2nc(N(CCCN(C)C)C(=O)c3ccc4c(c3)CCCC4)sc2c1
- IC50: 8.72 µM
- IC90: 11.8 µM
- CC50: 22.6 µM

SMILES: Cc1ccc(Sc2ccc(C=C3C(=O)N(C)C(=O)N(C)C3=O)o2)cc1
- IC50: 7.56 µM
- IC90: 20.8 µM

SMILES: CCOC(=O)N1C/C(=C\c2ccccc2)C(=O)/C(=C/c2ccccc2)C1
- IC50: 2.11 µM
- IC90: > 100 µM
- CC50: 19.3 µM

SMILES: COc1ccc(C(C(=O)NC2CCCCC2)N(C(=O)c2sc(C)nc2C)c2ccc(C(C)=O)cc2)cc1 (stereo unspecified)
- IC50: 65.5 µM
- IC90: > 100 µM

SMILES: Cc1ccc(C(=O)/C=C/c2ccc(-c3ccc(C)cc3)o2)cc1
- CC50: 21.9 µM

SMILES: COc1ccc(NCC(=O)Nc2ccc(Cl)cc2C)c(OC)c1
- IC50: 27.4 µM
- IC90: > 100 µM

SMILES: COc1cc(/C=C/c2ccc3c([N+](=O)[O-])cccc3n2)ccc1OCC(=O)O
- IC50: 2.72 µM
- IC90: 6.3 µM

SMILES: Cn1nc(C(F)(F)F)c(-c2ccc(Br)cc2)c1NC(=O)c1cccnc1
- IC90: > 100 µM
- CC50: > 40 µM

SMILES: Cc1csc(NC(=O)c2cc([N+](=O)[O-])cc([N+](=O)[O-])c2)n1
- IC50: 11.1 µM
- IC90: 15.9 µM
- CC50: > 40 µM

SMILES: O=C(Nc1ccc(-n2cccc2)cc1)C1CC1
- IC50: < 0.195 µM
- IC90: > 100 µM

SMILES: Cc1ccc(C)c(N=Nc2ccc(O)c3ncccc23)c1
- IC50: 68.5 µM
- IC90: > 100 µM
- CC50: 1.85 µM

SMILES: CCOC(=O)N1CCC(N2CCCC(C(=O)c3ccc4cc(OC)ccc4c3)C2)CC1 (stereo unspecified)
- IC50: 8.9 µM
- IC90: 25.1 µM
- CC50: > 40 µM

SMILES: Cc1cccc(OCCCCc2c(C)n[nH]c2C)c1
- IC50: 10.9 µM
- IC90: 15.5 µM
- CC50: > 40 µM

Reference: PubChem BioAssay AID1626 (SRMLSC, 2009)
